# In PubChem BioAssay AID1259407 (Chemical Carcinogenesis Research Information System (CCRIS), 2018):
# Active and inactive are the calls of the source. No rule for the calls is given here.
# System: CCRIS mutagenicity, Ames/micronucleus/aberration tests
# Assay: CCRIS mutagenicity studies
# [1] = Test System: AMES SALMONELLA TYPHIMURIUM, Strain/Indicator: TA98, Metabolic Activation: NONE, Method: STANDARD PLATE
# [2] = Test System: AMES SALMONELLA TYPHIMURIUM, Strain/Indicator: TA100, Metabolic Activation: NONE, Method: STANDARD PLATE
# [3] = Test System: AMES SALMONELLA TYPHIMURIUM, Strain/Indicator: TA100, Metabolic Activation: RAT, LIVER, S-9, AROCLOR 1254, Method: STANDARD PLATE
# [4] = Test System: AMES SALMONELLA TYPHIMURIUM, Strain/Indicator: TA1537, Metabolic Activation: NONE, Method: STANDARD PLATE
# [5] = Test System: AMES SALMONELLA TYPHIMURIUM, Strain/Indicator: TA1537, Metabolic Activation: RAT, LIVER, S-9, AROCLOR 1254, Method: STANDARD PLATE
structure (smiles),measurement,setting,value
c1ccc2c(c1)OCCOCCOCCOCCO2,mutagenic call,[1],inactive; negative
same,mutagenic call,"Test System: AMES SALMONELLA TYPHIMURIUM, Strain/Indicator: TA98, Metabolic Activation: RAT, LIVER, S-9, AROCLOR 1254, Method: STANDARD PLATE",inactive; negative
same,mutagenic call,[2],inactive; negative
same,mutagenic call,[3],inactive; negative
same,mutagenic call,"Test System: AMES SALMONELLA TYPHIMURIUM, Strain/Indicator: TA1530, Metabolic Activation: NONE, Method: STANDARD PLATE",inactive; negative
same,mutagenic call,"Test System: AMES SALMONELLA TYPHIMURIUM, Strain/Indicator: TA1530, Metabolic Activation: RAT, LIVER, S-9, AROCLOR 1254, Method: STANDARD PLATE",inactive; negative
same,mutagenic call,[4],inactive; negative
same,mutagenic call,[5],inactive; negative
Fc1ccc(Br)cc1,mutagenic call,"Test System: Mouse lymphoma, Strain/Indicator: L5178Y (tk+/tk-), Metabolic Activation: None, Method: Suspension/plate",inconclusive
same,mutagenic call,"Test System: Mouse lymphoma, Strain/Indicator: L5178Y (tk+/tk-), Metabolic Activation: Rat, Liver, S-9, Aroclor 1254, Method: Suspension/plate",inconclusive
c1ccc2c(c1)oc1ccccc12,mutagenic call,"End Point: IN VITRO CHROMOSOMAL ABERRATIONS, Test System: CHINESE HAMSTER OVARY CELLS, Metabolic Activation: NONE",inactive; negative
same,mutagenic call,"End Point: IN VITRO CHROMOSOMAL ABERRATIONS, Test System: CHINESE HAMSTER OVARY CELLS, Metabolic Activation: RAT, LIVER, S-9, AROCLOR 1254",inactive; negative
same,mutagenic call,"Test System: AMES SALMONELLA TYPHIMURIUM, Strain/Indicator: TA98, Metabolic Activation: HAMSTER LIVER S-9, AROCLOR 1254, Method: STANDARD PLATE",inactive; negative
same,mutagenic call,[1],inactive; negative
same,mutagenic call,"Test System: AMES SALMONELLA TYPHIMURIUM, Strain/Indicator: TA98, Metabolic Activation: RAT LIVER S-9, AROCLOR 1254, Method: STANDARD PLATE",inactive; negative
same,mutagenic call,"Test System: AMES SALMONELLA TYPHIMURIUM, Strain/Indicator: TA98, Metabolic Activation: RAT, LIVER, S-9, PHENOBARBITAL AND NAPHTHOFLAVONE, Method: STANDARD PLATE",inactive; negative
same,mutagenic call,"Test System: AMES SALMONELLA TYPHIMURIUM, Strain/Indicator: TA98, Metabolic Activation: S-9, PHENOBARBITAL AND 5,6-BENZOFLAVONE, Method: STANDARD PLATE",inactive; negative
same,mutagenic call,"Test System: AMES SALMONELLA TYPHIMURIUM, Strain/Indicator: TA100, Metabolic Activation: HAMSTER LIVER S-9, AROCLOR 1254, Method: STANDARD PLATE",inactive; negative
same,mutagenic call,[2],inactive; negative
same,mutagenic call,"Test System: AMES SALMONELLA TYPHIMURIUM, Strain/Indicator: TA100, Metabolic Activation: RAT LIVER S-9, AROCLOR 1254, Method: STANDARD PLATE",inactive; negative
same,mutagenic call,"Test System: AMES SALMONELLA TYPHIMURIUM, Strain/Indicator: TA100, Metabolic Activation: RAT, LIVER, S-9, PHENOBARBITAL AND NAPHTHOFLAVONE, Method: STANDARD PLATE",inactive; negative
same,mutagenic call,"Test System: AMES SALMONELLA TYPHIMURIUM, Strain/Indicator: TA100, Metabolic Activation: S-9, PHENOBARBITAL AND 5,6-BENZOFLAVONE, Method: STANDARD PLATE",inactive; negative
O=C(O)c1cc2c(c3c1c([N+](=O)[O-])cc1c(O)cccc13)OCO2,mutagenic call,[2],active; positive
same,mutagenic call,[3],inactive; negative
same,mutagenic call,[4],active; positive
same,mutagenic call,[5],inactive; negative
CC(C)=CCC[C@](C)(O)[C@@H]1CC=C(C)CC1,mutagenic call,"End Point: AMES SALMONELLA TYPHIMURIUM, Test System: TA97A, Metabolic Activation: NONE, Method: STANDARD PLATE",inactive; negative
same,mutagenic call,"End Point: AMES SALMONELLA TYPHIMURIUM, Test System: TA97A, Metabolic Activation: RAT, LIVER, S-9, AROCLOR 1254, Method: STANDARD PLATE",inactive; negative
same,mutagenic call,"End Point: AMES SALMONELLA TYPHIMURIUM, Test System: TA98, Metabolic Activation: NONE, Method: STANDARD PLATE",inactive; negative
same,mutagenic call,"End Point: AMES SALMONELLA TYPHIMURIUM, Test System: TA98, Metabolic Activation: RAT, LIVER, S-9, AROCLOR 1254, Method: STANDARD PLATE",inactive; negative
same,mutagenic call,"End Point: AMES SALMONELLA TYPHIMURIUM, Test System: TA100, Metabolic Activation: NONE, Method: STANDARD PLATE",inactive; negative
same,mutagenic call,"End Point: AMES SALMONELLA TYPHIMURIUM, Test System: TA100, Metabolic Activation: RAT, LIVER, S-9, AROCLOR 1254, Method: STANDARD PLATE",inactive; negative
same,mutagenic call,"End Point: AMES SALMONELLA TYPHIMURIUM, Test System: TA1535, Metabolic Activation: NONE, Method: STANDARD PLATE",inactive; negative
same,mutagenic call,"End Point: AMES SALMONELLA TYPHIMURIUM, Test System: TA1535, Metabolic Activation: RAT, LIVER, S-9, AROCLOR 1254, Method: STANDARD PLATE",inactive; negative
